ChEMBL document CHEMBL1201862, “PubChem BioAssay data set” (2004)
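Following 48 hours of exposure in 96-well plates, responses at five concentrations were used to interpolate endpoints linearly. Abbreviation: GI50, concentration required for 50% inhibition of growth.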 Active and inactive are the calls of the source. Cut-off read from the data, not from the text of the source: active = GI50 up to about 1.1 µM and inactive = higher.

Key:
Assay in all cases: NCI tumour cell line growth inhibition, 48 h
SW-620 = system: SW-620
IGROV-1 = system: IGROV-1
COLO 205 = system: COLO 205
786-0 = system: 786-0
SK-MEL-2 = system: SK-MEL-2
MDA-MB-435 = system: MDA-MB-435
HOP-62 = system: HOP-62
ACHN = system: ACHN
SNB-19 = system: SNB-19
A498 = system: A498
KM12 = system: KM12
MCF7 = system: MCF7
SF-539 = system: SF-539
M14 = system: M14
HCT-15 = system: HCT-15
SK-MEL-5 = system: SK-MEL-5
HL-60 = system: HL-60
HCT-116 = system: HCT-116
SNB-75 = system: SNB-75
CCRF-CEM = system: CCRF-CEM
HT-29 = system: HT-29
DU-145 = system: DU-145
UO-31 = system: UO-31
K562 = system: K562
Malme-3M = system: Malme-3M
BT-549 = system: BT-549
UACC-62 = system: UACC-62
EKVX = system: EKVX
OVCAR-3 = system: OVCAR-3
SR = system: SR
RPMI-8226 = system: RPMI-8226
SF-268 = system: SF-268
MDA-MB-231 = system: MDA-MB-231
NCI/ADR-RES = system: NCI/ADR-RES
SN12C = system: SN12C
MOLT-4 = system: MOLT-4
SF-295 = system: SF-295
HOP-92 = system: HOP-92
MDA-N = system: MDA-N
T47D = system: T47D
SK-MEL-28 = system: SK-MEL-28
HCC 2998 = system: HCC 2998
U-251 = system: U-251
CAKI-1 = system: CAKI-1
OVCAR-5 = system: OVCAR-5
OVCAR-8 = system: OVCAR-8
NCI-H522 = system: NCI-H522
PC-3 = system: PC-3
A549 = system: A549
SK-OV-3 = system: SK-OV-3

CCOP(C)(=O)C(Cc1c[nH]c2ccccc12)C(=O)O (stereo not given)
GI50 (SW-620): > 100 µM (inactive)
GI50 (IGROV-1): > 100 µM (inactive)
GI50 (COLO 205): > 100 µM (inactive)
GI50 (786-0): > 100 µM (inactive)
GI50 (SK-MEL-2): > 100 µM (inactive)
GI50 (MDA-MB-435): > 100 µM (inactive)
GI50 (HOP-62): > 100 µM (inactive)
GI50 (ACHN): > 100 µM (inactive)
GI50 (SNB-19): > 100 µM (inactive)
GI50 (A498): > 100 µM (inactive)
GI50 (KM12): > 100 µM (inactive)
GI50 (MCF7): > 100 µM (inactive)
GI50 (SF-539): > 100 µM (inactive)
GI50 (M14): > 100 µM (inactive)
GI50 (HCT-15): > 100 µM
GI50 (SK-MEL-5): > 100 µM (inactive)
GI50 (HL-60): > 100 µM (inactive)
GI50 (HCT-116): > 100 µM (inactive)
GI50 (SNB-75): > 100 µM (inactive)
GI50 (CCRF-CEM): > 100 µM (inactive)
GI50 (HT-29): > 100 µM (inactive)
GI50 (DU-145): > 100 µM (inactive)
GI50 (UO-31): > 100 µM (inactive)
GI50 (K562): > 100 µM (inactive)
GI50 (Malme-3M): > 100 µM (inactive)
GI50 (BT-549): > 100 µM (inactive)
GI50 (UACC-62): > 100 µM (inactive)
GI50 (EKVX): > 100 µM (inactive)
GI50 (OVCAR-3): > 100 µM (inactive)
GI50 (SR): > 100 µM (inactive)
GI50 (RPMI-8226): > 100 µM (inactive)
GI50 (SF-268): > 100 µM (inactive)
GI50 (MDA-MB-231): > 100 µM (inactive)
GI50 (NCI/ADR-RES): > 100 µM (inactive)
GI50 (SN12C): > 100 µM (inactive)
GI50 (MOLT-4): > 100 µM (inactive)
GI50 (SF-295): > 100 µM (inactive)
GI50 (HOP-92): > 100 µM (inactive)
GI50 (MDA-N): > 100 µM (inactive)
GI50 (T47D): > 100 µM (inactive)
GI50 (SK-MEL-28): > 100 µM (inactive)
GI50 (HCC 2998): > 100 µM (inactive)
GI50 (U-251): > 100 µM (inactive)
GI50 (CAKI-1): > 100 µM (inactive)
GI50 (OVCAR-5): > 100 µM (inactive)
GI50 (OVCAR-8): > 100 µM (inactive)
GI50 (NCI-H522): > 100 µM (inactive)
GI50 (PC-3): > 100 µM (inactive)
GI50 (A549): > 100 µM (inactive)
GI50 (SK-OV-3): > 100 µM (inactive)
